For data set [1], the target named is human serotonin transporter (h-SERT) (Homo sapiens (Human), UniProt P31645). Nature of the data set: [3H] citalopram binding screening test for inhibitory effect on human serotonin reuptake. As to conditions: h-SERT/CHO membrane preparation, [3H] citalopram approx. 2 nM; read-out: h-SERT binding inhibition constant (Ki). The protocol: Screening Test Using [^3H] Citalopram Binding for Evaluating Inhibitory Effect on Human Serotonin Reuptake
1-1 Cells Used and Preparation of Membrane Preparation
CHO cells expressing a human serotonin transporter (h-SERT) (h-SERT/CHO) were used in the experiment. The cells were cultured in F12 containing 10% FCS, 500 μg/ml Geneticin and 100 U/ml penicillin-100 μg/ml streptomycin (all manufactured by Sigma-Aldrich Corp.) in a 5% CO2 incubator. The cells dissociated and collected therefrom using SERT buffer (50 mM Tris-HCl containing 120 mM NaCl and 5 mM KCl (pH=7.4)) were homogenized using a Teflon (R) homogenizer and then centrifuged (50,000×g, 30 min, 4° C.). The precipitate was resuspended in an appropriate amount of SERT buffer and stored at −80° C. until use. The amount of the protein in the membrane preparation were determined using bovine serum albumin (manufactured by Sigma-Aldrich Corp.) as standards and Dye Reagent Concentrate (manufactured by Bio-Rad Laboratories, Inc.).
1-2 Receptor Binding Experiment
[^3H] citalopram binding was assayed according to the method of Owens et al. [Owens M. J. et al., J. Pharm. […] Specifically, 50 μl of [^3H] citalopram (final concentration: approximately 2 nM) diluted with SERT buffer, 149 μl of the h-SERT/CHO membrane preparation (40 μg/well in terms of the amount of the protein), and 1 μl of a solution of a test drug dissolved in DMSO were added to prepare 200 μl in total of a solution. This solution was reacted at room temperature for 60 minutes and then immediately suction-filtered at a low pressure using a glass fiber filter paper coated with a 0.05% aqueous polyethyleneimine solution. The glass fiber filter paper was washed twice with 250 μl of SERT buffer and then transferred to a glass vial containing 4 ml of ACS-II (manufactured by GE Healthcare (formerly Amersham Biosciences)). Radioactivity remaining on the filter paper was measured using a liquid scintillation counter. The nonspecific binding of [^3H] citalopram was defined as a binding amount in the presence of 1 μM clomipramine.
The smaller numeric value of the h-SERT binding inhibition constant Ki means a higher inhibitory effect on human serotonin reuptake.

The target of data set [2] is T1, CYP2D6 (Homo sapiens (Human), UniProt P10635). Nature of the data set: Screening test on contribution ratio of CYP2D6 in human liver microsomal metabolism. Type of data set: in vitro ADME. The conditions noted are these: 1 mg/mL human liver microsomes, 1 μM test substance, with/without 4 μM quinidine; values marked *) are reference values due to relative stability. On the procedure: Screening Test on Contribution Ratio of CYP2D6 in Human Liver Microsomal Metabolism
0.2 mL of a 50 mM potassium phosphate buffer (pH 7.4) containing 3 mM (final concentration) NADPH (manufactured by Oriental Yeast Co., Ltd.), 1 mg/mL human liver microsomes (manufactured by Xenotech, LLC) and 1 μM test substance was warmed in a water bath at 37° C. for metabolic reaction. After 15- or 30-minute reaction, the reaction was terminated by the addition of a 3-fold volume of methanol with respect to the reaction solution and subsequent stirring. This reaction solution was centrifuged to precipitate proteins. Then, the supernatant was collected and subjected to LC-MS/MS analysis. The results were analyzed as follows:
The test substance was quantified, and time-dependent change in its residual amount was logarithmically plotted. The rate of metabolism was calculated from the slope.
The ratio of the rate of metabolism in the presence of quinidine added at 4 μM (final concentration) to the reaction solution to that in the absence of quinidine was used as the contribution ratio of enzymes other than CYP2D6. The remaining portion was used as the contribution ratio of CYP2D6. Specifically, it was calculated according to the formula: Contribution ratio (%)={1−(Rate of metabolism [in the presence of quinidine]/Rate of metabolism [in the absence of quinidine])}×100 The smaller numeric value of the contribution ratio of CYP2D6 means the small contribution of CYP2D6.
Background: Liver microsomes are a subcellular fraction often used to study metabolism.

Data set [3] has as its target T1, CYP2D6. Nature of the data set: CYP2D6 inhibition screening test (bufuralol 1'-hydroxylation, pooled human liver microsomes). In kind it is in vitro ADME. As to conditions: substrate bufuralol, 37° C. 10 min. The protocol:
CYP2D6 Inhibition Screening Test
Bufuralol hydrochloride was purchased from Toronto Research Chemicals Inc., and pooled human liver microsomes were purchased from Xenotech, LLC.
Bufuralol hydrochloride was dissolved in DMSO at a concentration of 1.0 mM and then diluted 20-fold with distilled water.
• 1. A 10 mM solution of a test drug in DMSO was serially diluted with DMSO at four 5-fold dilutions to prepare 10, 2, 0.4 and 0.08 mM DMSO solutions. • 2. Each test drug solution of step 1 or DMSO was diluted 160-fold with the human liver microsome solution and dispensed at a concentration of 80 μL/well to a microplate. • 3. 10 μL of the substrate solution and 10 μL of the β-NADPH solution were added to each well of step 2, and the mixture was incubated at 37° C. for 10 min. • 4. The reaction was terminated by the addition of 300 μL of methanol. • 5. The reaction mixture was filtered and analyzed by LC-MS/MS. 3-4 Quantification and Calculation
The amount of 1′-hydroxybufuralol formed was determined by LC-MS/MS, and this value was used as the metabolic activity value of CYP2D6 in each well. The residual activity of each sample-supplemented group was determined by comparison with the activity in the well containing DMSO used as a test drug. IC50 values in CYP2D6 inhibition were determined from the test drug concentrations. […] The larger numeric value of IC50 in CYP2D6 inhibition means weaker CYP2D6 inhibition.

The target in data set [4] is human serotonin 1A receptor (h-5-HT1A) (Homo sapiens (Human), UniProt P08908). As to the kind of experiment: [3H] 8-OH-DPAT binding test for affinity for human serotonin 1A receptor. The conditions noted are these: h-5-HT1A/CHO membrane preparation, [3H] 8-OH-DPAT 0.5 nM; read-out: h-5-HT1A binding inhibition constant (Ki). On the procedure: [^3H] 8-OH-DPAT Binding Test for Evaluating Affinity for Human Serotonin 1A Receptor
2-1 Cells Used and Preparation of Membrane Preparation
CHO cells expressing a human serotonin 1A receptor (h-5-HT1A) (h-5-HT1A/CHO) were used in the experiment. The cells were cultured in F12 containing 10% FCS, 500 μg/ml Geneticin and 100 U/ml penicillin-100 μg/ml streptomycin (all manufactured by Sigma-Aldrich Corp.) in a 5% CO2 incubator. Membrane preparation were prepared according to the method of Yabuuchi et al.^3). Specifically, the cells dissociated and collected therefrom using 50 mM Tris-HCl (pH=7.4) were homogenized using a Teflon® homogenizer and then centrifuged (48,000×g, 20 min, 4° C.). The precipitate was resuspended in an appropriate amount of 50 mM Tris-HCl (pH=7.4) and stored at −80° C. until use. The amount of the protein in the membrane preparation were determined using bovine serum albumin (manufactured by Sigma-Aldrich Corp.) as standards and Dye Reagent Concentrate (manufactured by Bio-Rad Laboratories, Inc.).
2-2 Receptor Binding Experiment
50 μl of [^3H] 8-OH-DPAT (final concentration: 0.5 nM), 1 μl of a test drug solution, and 149 μl of the h-5-HT1A/CHO membrane preparation (25 μg/well in terms of the amount of the protein) were added into a buffer containing 50 mM Tris-HCl (pH=7.4) and 4 mM CaCl2, and 200 μl in total of the reaction solution was used in the assay. The reaction solution was reacted at room temperature for 30 minutes and then immediately suction-filtered at a low pressure using a glass fiber filter paper. The glass fiber filter paper was washed twice with 250 μl of 50 mM Tris-HCl (pH=7.4) and then added to a counting vial containing 4 ml of ACS-II (manufactured by GE Healthcare (formerly Amersham Biosciences)). Receptor binding-derived radioactivity remaining on the filter paper was measured using a liquid scintillation counter. The nonspecific binding was defined as a binding amount in the presence of 10 μM 8-OH-DPAT.
8-OH-DPAT. Moreover, the Kd value was the binding dissociation constant of [^3H] […] The smaller numeric value of the h-5-HT1A binding inhibition constant Ki means higher affinity for human serotonin 1A receptors.

From patent US8778970B2, “Benzyl piperidine compound” (Dainippon Sumitomo Pharma Co., Ltd, priority 2009, dated 2014) come the findings set out here.

T1 sequence (P10635 whole entry): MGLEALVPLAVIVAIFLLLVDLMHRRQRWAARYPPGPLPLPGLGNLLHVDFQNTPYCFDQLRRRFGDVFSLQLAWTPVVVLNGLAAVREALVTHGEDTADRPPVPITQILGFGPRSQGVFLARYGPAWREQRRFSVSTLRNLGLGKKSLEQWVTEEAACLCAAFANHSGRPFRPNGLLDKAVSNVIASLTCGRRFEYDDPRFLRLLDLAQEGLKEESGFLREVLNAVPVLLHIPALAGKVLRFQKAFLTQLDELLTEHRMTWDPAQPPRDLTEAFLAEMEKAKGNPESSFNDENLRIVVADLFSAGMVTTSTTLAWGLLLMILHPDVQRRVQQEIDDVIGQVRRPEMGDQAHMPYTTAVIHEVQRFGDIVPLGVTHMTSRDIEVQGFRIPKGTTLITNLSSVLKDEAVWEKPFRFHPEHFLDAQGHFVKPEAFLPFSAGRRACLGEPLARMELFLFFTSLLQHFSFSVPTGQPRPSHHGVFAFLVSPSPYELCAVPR
Sequence of human serotonin 1A receptor (h-5-HT1A) (P08908 whole entry): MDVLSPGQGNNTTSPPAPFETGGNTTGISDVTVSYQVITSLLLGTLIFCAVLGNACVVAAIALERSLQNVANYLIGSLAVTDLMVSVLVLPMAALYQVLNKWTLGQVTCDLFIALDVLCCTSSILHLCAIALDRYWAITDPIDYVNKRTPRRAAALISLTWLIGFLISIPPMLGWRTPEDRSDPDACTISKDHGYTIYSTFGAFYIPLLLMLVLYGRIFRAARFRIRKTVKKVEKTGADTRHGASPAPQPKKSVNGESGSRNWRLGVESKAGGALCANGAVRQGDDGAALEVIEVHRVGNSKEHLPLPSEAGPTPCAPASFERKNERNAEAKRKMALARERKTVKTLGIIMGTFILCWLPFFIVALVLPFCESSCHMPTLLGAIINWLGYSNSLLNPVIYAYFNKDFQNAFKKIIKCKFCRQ
Sequence of human serotonin transporter (h-SERT) (P31645 whole entry): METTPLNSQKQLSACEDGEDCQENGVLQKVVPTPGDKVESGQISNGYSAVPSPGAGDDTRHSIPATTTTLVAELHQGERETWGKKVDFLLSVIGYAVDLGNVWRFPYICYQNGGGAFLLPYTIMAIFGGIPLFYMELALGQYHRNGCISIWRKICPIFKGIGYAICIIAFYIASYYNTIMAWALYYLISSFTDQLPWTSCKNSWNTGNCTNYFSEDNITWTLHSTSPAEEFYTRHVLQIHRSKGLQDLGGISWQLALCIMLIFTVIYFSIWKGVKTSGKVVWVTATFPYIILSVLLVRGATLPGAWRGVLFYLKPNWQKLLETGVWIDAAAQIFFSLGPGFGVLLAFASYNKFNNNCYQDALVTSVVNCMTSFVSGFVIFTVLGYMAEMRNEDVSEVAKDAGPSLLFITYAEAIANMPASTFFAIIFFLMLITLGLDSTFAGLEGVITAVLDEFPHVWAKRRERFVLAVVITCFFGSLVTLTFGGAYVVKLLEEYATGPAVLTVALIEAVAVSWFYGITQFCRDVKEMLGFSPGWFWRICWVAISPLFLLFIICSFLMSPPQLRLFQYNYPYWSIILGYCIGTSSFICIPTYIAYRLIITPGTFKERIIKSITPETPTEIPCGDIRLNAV

Turning to `O=C1c2cc(CCN3CCC(Cc4ccc(Br)c(O)c4)CC3)ccc2OCC1O` (stereo not shown) [Compound 5-5, 6-{2-[4-(4-Bromo-3-hydroxybenzyl)piperidin-1-yl]ethyl}-3-hydroxy-2,3-dihydro-4H-chromen-4-one], the values for the inhibition constant Ki in data set [1] and in data set [4] were 11 nM and 1.1 nM, respectively. Further, the CYP2D6 contribution ratio in data set [2] is on record as 24%. In data set [3], 23000 nM corresponded to half-maximal inhibition (IC50).

As for `COCCOc1cc(CC2CCN(CCc3ccc4occc(=O)c4c3)CC2)ccc1Br.Cl` [Compound 5-6, 6-(2-{4-[4-Bromo-3-(2-methoxyethoxy)benzyl]piperidin-1-yl}ethyl)-4H -chromen-4-one hydrochloride], the Ki (as a rule, a dissociation constant, usually derived from enzyme kinetics or from competition with a known ligand) in data set [1] is 0.27 nM; in data set [4], 2 nM. The CYP2D6 contribution ratio in data set [2] is 31%. For the same compound, the IC50 (commonly the concentration that inhibits the measured activity by half) in data set [3] is 28300 nM.

As to `Cl.O=c1ccoc2ccc(CCN3CCC(Cc4ccc(Br)c(OCCO)c4)CC3)cc12` [Compound 5-7, 6-(2-{4-[4-Bromo-3-(2-hydroxyethoxy)benzyl]piperidin-1-yl}ethyl)-4H-chromen-4-one hydrochloride], the Ki worked out at 3.5 nM in data set [1] and 2.1 nM in data set [4]. Further, the CYP2D6 contribution ratio in data set [2] is 9.2*) %. In data set [3], 34900 nM corresponded to half-maximal inhibition (IC50).

In the case of `O=C1CCOc2ccc(CCN3CCC(Cc4ccc(Br)c(O)c4)CC3)cc21` [Compound 5-8, 6-{2-[4-(4-Bromo-3-hydroxybenzyl)piperidin-1-yl]ethyl}-2,3-dihydro-4H-chromen-4-one], the figures for the Ki in data set [1] and in data set [4] were 6.5 nM and 1.3 nM, respectively. For the same compound, in data set [2], the CYP2D6 contribution ratio is recorded as 98%. Besides, the IC50 in data set [3] came out at 9900 nM.

For the compound `O=c1ccoc2ccc(CCN3CCC(Cc4ccc(Br)c(O)c4)CC3)cc12` [Compound 5-9, 6-{2-[4-(4-Bromo-3-hydroxybenzyl)piperidin-1-yl]ethyl}-4H-chromen-4-one], the Ki in data set [1] stood at 1.7 nM; in data set [4] it was 0.27 nM. Moreover, in data set [2], the CYP2D6 contribution ratio turned out to be 46%. This compound yielded an IC50 in data set [3] of 16800 nM.

As for `COCCOc1cc(CC2CCN(CCc3ccc4occ(O)c(=O)c4c3)CC2)ccc1Br` [Compound 5-14, 6-(2-{4-[4-Bromo-3-(2-methoxyethoxy)benzyl]piperidin-1-yl}ethyl)-3-hydroxy-4H-chromen-4-one], the inhibitory constant (Ki) worked out at 0.88 nM in data set [1] and 2.5 nM in data set [4]. The CYP2D6 contribution ratio in data set [2] came out at 8%. Further, half-maximal inhibition in data set [3] (IC50) required 37600 nM.

As for `Oc1cc(CC2CCN(CCc3ccc4c(c3)C(O)CCO4)CC2)ccc1Br` (stereo not shown) [Compound 5-15, 6-{2-[4-(4-Bromo-3-hydroxybenzyl)piperidin-1-yl]ethyl}-3,4-dihydro-2H-chromen-4-ol], the Ki in data set [1] is 41 nM; in data set [4] it was 8.5 nM. Also, in data set [2], the CYP2D6 contribution ratio is on record as 0*) %. Further, half-maximal inhibition in data set [3] (IC50) was put at 40300 nM.
